For series [1] the following is noted: 100 mg in 5 ml, water bath at 80-100°C. The protocol:
Method example 1: 100 mg of clopidogrel hydrobromide HY-1 obtained according to example Ba) was dissolved in 5 ml of the solvent on a water bath at 80-100°C with constant shaking and the solvent was allowed to evaporate slowly at room temperature for 24 hours at ambient pressure.

For series [2] the following is noted: benzene/ acetonitrile 1:1, method example b (dissolved at 70°C, evaporation 24 hours at room temperature). On the procedure:
Method example b: 100 mg of clopidogrel hydrobromide HY-1 were dissolved in 3-5 ml of the first solvent at a temperature of 70°C. 8-10 ml of the second solvent were added to the solution over 3-5 minutes to reduce the polarity until it becomes a saturated solution. The solvent mixture was allowed to evaporate for 24 hours at room temperature at ambient pressure for 24 hours. The precipitate was filtered off.

The conditions of series [3]: room temperature, closed glass container, after 8 to 10 month; PXRD, DSC, Raman. An excerpt: Polymorph Form B of clopidogrel hydrobromide obtained in example 2a) was stored at room temperature in a closed glass container.
How the values of series [4] were obtained:
Example 10: Stability of the forms (solvent mediated transformation studies)
To assess the stability of the anhydrous Forms A and B, solvent mediated transformation experiments were performed. […] This was tested by viewing a few crystals of Form A/Form B under the microscope by placing them on a glass plate with a cover-slip, adding a drop of water and spreading around the cover. […] Table 3: Results of the solvent mediated transformation studies

The conditions of series [5]: in vivo; cited from earlier work.
Series [6] relates to platelet aggregation. Particulars: 75 mg of base equivalent versus 325 mg of acetyl salicylic acid; cited from earlier work.

Structures can show the parent of a compound that is named as a salt. Where two headings read alike, the source gives them in different places.

As to `COC(=O)[C@H](c1ccccc1Cl)N1CCc2sccc2C1` [Form HY-1, clopidogrel hydrobromide], the solubility result in series [1] (solvent acetic acid) is listed as “highly soluble”; in series [1] (solvent acetone), “soluble”; in series [1] (solvent acetonitrile), “soluble”; in series [1] (solvent benzene), “sparingly soluble”; in series [1] (solvent chloroform) it was “highly soluble”; in series [1] (solvent cyclohexane), “insoluble”. Further, the solubility entry in series [1] (solvent dichloromethane) is reported as “highly soluble”; in series [1] (solvent diethylether), “insoluble”; in series [1] (solvent dimethylformamide), “soluble”; in series [1] (solvent dioxane), “soluble in hot”; in series [1] (solvent ethanol) it was “highly soluble”; in series [1] (solvent ethylacetate), “soluble in hot”. For the same molecule, the solubility entry was “highly soluble” in series [1] (solvent i-propanol); “highly soluble” in series [1] (solvent methanol); “highly soluble” in series [1] (solvent n-butanol); “insoluble” in series [1] (solvent n-decane); “insoluble” in series [1] (solvent n-hexane); “soluble” in series [1] (solvent n-pentanol). Also, the solubility result in series [1] (solvent n-propanol) is reported as “highly soluble”; in series [1] (solvent nitromethane) it was “soluble”; in series [1] (solvent petrolether), “insoluble”; in series [1] (solvent tetrachloromethane) it was “insoluble”; in series [1] (solvent tetrahydrofurane), “soluble in hot”; in series [1] (solvent toluene), “soluble in hot”. Further, the figures for the solubility result in series [1] (solvent water) and in series [1] (solvent xylene) were “sparingly soluble in hot” and “soluble in hot”, respectively. For the same molecule, in series [2], the “Remarks (behaviour in the solvent mixture)” value is “Decomposition”.
As for `COC(=O)[C@H](c1ccccc1Cl)N1CCc2sccc2C1` [Form B, clopidogrel hydrobromide], the “polymorphic form identified after storage” value in series [3] was “Form E”.
Consider `COC(=O)[C@H](c1ccccc1Cl)N1CCc2sccc2C1` [Form A, clopidogrel hydrobromide], for which, in series [4] (a few crystals on a glass plate under the microscope, a drop of water added), the “time span within which needle like crystals corresponding to HY-1 were formed” value is no more than 30 min. Further, in series [4] (apolar solvents containing minimal amounts of water), the “time span within which the form is converted to the hydrate, i.e. HY-1” value is no more than 1 h. In addition, the Resulting form result in series [4] (solvent water, 30 min/25°C) is listed as “HY-1”.
With `COC(=O)[C@H](c1ccccc1Cl)N1CCc2sccc2C1` [A:B (1:1), clopidogrel hydrobromide], the Resulting form result was “HY-2” in series [4] (solvent toluene, 1 day/10-30°C) and “HY-1” in series [4] (solvent water, 1 day/20°C). In addition, in series [4] (toluene (200 mg in 3-5 ml), 10-30°C, 1-4 days, formed after 1 day, confirmed after 4 days and 2-4 weeks by PXRD, DSC, TGA, Raman), the “polymorph produced on stirring” value is given as “HY-2”.
With `COC(=O)[C@H](c1ccccc1Cl)N1CCc2sccc2C1` [Clopidogrel, (αS)-α-(2-chlorophenyl)-6,7-dihydrothieno[3,2-c]-pyridine-5(4H)-acetic acid methyl ester], the “gastrointestinal bleeding versus acetyl salicylic acid” value in series [5] was “much less”. For the same molecule, the “effectiveness in blocking platelet aggregation versus acetyl salicylic acid” value in series [6] was “more effective”.
